From US11718582B2, “(R)-4-(1-(1-(4-(trifluoromethyl)benzyl)pyrrolidine-2-carboxamide)cyclopropyl)-benzoic acid as EP4 receptor antagonist” (ROTTAPHARM BIOTECH S.R.L., priority 2018, dated 2023) come the findings set out here.

Counter-ions that a name gives are not always drawn. Like-named read-outs stand apart in the source and are kept apart here.

The target in one data set is T1, EP4 receptor (Rattus norvegicus, UniProt P43114).
T1 construct: by the cells present in the whole blood of the rat and expressing the EP4 receptor; from tissue; host or cells: whole blood of male Wistar rats dosed orally, ex vivo
In words: Ex-vivo functional test: reversion of PGE2 effect on LPS-induced TNF alpha release in rat whole blood (EP4 receptor occupation). Conditions: 30 mg/kg oral; for Effect per se on the release of TNF alpha (in absence of PGE2): LPS only; for Reversion of the effect of PGE2 on LPS-induced TNF alpha release: blood sampled 1 hour after treatment, **p<0.01 vs vehicle. On the procedure:
Ex-Vivo Functional Test: Evaluation in the Rat of EP4 Receptor Occupation by Compound 1 (30 mg/kg) Compared to CR6086 (30 mg/kg)
Method: The release of the cytokine TNF alpha induced by the endotoxin Lipopolysaccharide (from E. coli) and modulated by increasing concentrations of PGE2 was evaluated, by the cells present in the whole blood of the rat and expressing the EP4 receptor. As it is known from the literature, PGE2 modulates this release by inhibiting it, and the compounds tested, selective for the EP4 receptor, if present in the blood following their uptake, will be bound to the receptor, preventing PGE2 from inhibiting cytokine release. This reversal effect of the modulation of TNF alpha release can be considered a biomarker of the antagonism towards the EP4 receptor.
Male Wistar rats (Charles River, Italy) weighing 250-275 g were used, orally treated with a vehicle or Compound 1 (30 mg/kg) or CR6086 (30 mg/kg). Each treatment group consisted of 6 animals.
Measurement of the Ex-Vivo Effects in Whole Blood of the Rat:
The effects of the receptor occupancy by the compounds under examination was evaluated one hour after their administration, and compared to those measured in the presence of the vehicle alone. After gaseous anaesthesia with isofluorane, blood was taken from the abdominal aorta and transferred to tubes containing heparin (0.1-0.2 U/ml). Then 0.4 ml blood aliquots were taken and dispensed into a series of test tubes which were pre-heated at 37° C. for 10 minutes. LPS (0.1 μg/ml final concentration) were added to the samples, which represented the test control, or an LPS mix (0.1 μg/ml final concentration)+PGE2 at various concentrations. In the samples representing the basal release of cytokine, LPS was replaced by sterile phosphate buffer (PBS). The samples were incubated for 4 hours at 37° C., then 40 μl of 10 mM EDTA were added and the samples were transferred into ice. The samples were then centrifuged at 1500×g for 10 minutes at 4° C. and the plasma thus obtained was removed and stored at −80° C. until the time of the dosing. The content of TNF alpha in the plasma was measured by means of a specific commercial kit.
The final concentrations of TNF alpha were calculated for each animal treated and for each experimental condition, from which the percentage of inhibition due to increasing concentrations of PGE2 were obtained, compared to the sample containing only LPS. The cytokine release baseline values resulted to be below the ELISA assay sensitivity limit, indicated by the manufacturer. Therefore, the IC50 value was calculated from this inhibition curve. […] The mean TNF alpha values of the samples in presence of only LPS, in the different treatment groups were analysed to verify the possible intrinsic effect of the compound under examination. […]

Data set [1] deals with T2, human EP4 receptor (Homo sapiens, UniProt P35408). The data set can be described thus: [3H]-PGE2 binding to recombinant human EP4 receptor (HEK293 membranes). Also on record: expressed in transfected cells. Conditions: for IC50: recombinant human EP4 receptor, HEK293 membranes, radioligand 1 nM, 90 min 25° C., read-out: [3H]-PGE2 binding IC50 (nM ± SD). On the procedure:
Studies of Binding Towards the Human EP4 Receptor.
The experiments were performed in accordance with the procedure described by Abramovitz et al (Biochemica and Biophysica Acta; 1483, 285-293, 2000).
The cell membranes bearing the human EP4 receptor, stably expressed by HEK293 cells (Human Embryonic Kidney 293) were prepared as described below. After eliminating the culture medium (DMEM, supplemented with Glutamax I and containing 10% of foetal bovine serum and blasticidin 10 μg/ml) a wash of the cell monolayer was performed with 10 ml of hypotonic lysis buffer (TRIS-CI 5 mM+EDTA 5 mM-pH 7.4). The cells, which grew in adherence in the above mentioned medium at 37° C. with 5% CO2, were then detached from the growth container (150 cm^2 flask) and lysed by mechanical action, adding 20 ml of fresh lysis buffer. The lysates were stirred for 30 seconds and centrifuged at 40000×g for 22 minutes at 4° C. The final pellet was stored at −80° C. until use. At the time of the binding experiment, the membranes were thawed and re-suspended in analysis buffer (10 mM MES-KOH pH6, containing 10 mM MgCl2 and 1 mM CaCl2)) to obtain a concentration of 1 mg of proteins/ml. The protein content of the membrane suspension was determined using bovine serum albumin as a standard.
In the experiments, 10 μl aliquots of membranes were incubated with the radioligand [^3H]-Prostaglandin E2 (PGE2) at the concentration of 1 nM, in absence or in presence of various concentrations of the compounds to be tested. The non-specific binding was determined in the presence of PGE2 1 μM. The incubation, in a final volume of 0.1 ml, performed in 96 deepwell microplates, proceeded for 90 minutes at 25° C. The separation of the free radioligand from that bound to the receptor occurred by rapid filtration under vacuum, using Unifilter GFB glass fibre filtering microplates, pre-wetted with 0.3% of polyethylene-imine dissolved in the analysis buffer, followed by 3 washes with cold buffer (50 mM HEPES, NaCl 500 mM, BSA 0.1%, pH 7.4). The filtration discs were then dried at 30° C., to which 0.05 ml of Microscint-20 scintillation liquid (Perkin Elmer) was added to each and at the end the radioactivity present was measured after at least one hour of stabilization. The compound/radioligand competition curves were analysed using the “Non linear curve fitting” program (Graph Pad, version 7 for Windows), which allowed calculating the IC50 value (concentration capable of inhibiting the 50% of the radioligand binding to the receptor under examination) for each compound evaluated.

Data set [2] has as its target T2, human EP4 receptor. In words: Determination of cAMP in CHO cells transfected with human EP4 receptor (functional test). It is filed as cell-based. Also on record: expressed in transfected cells; host or cells: CHO cells. Conditions: for Agonist effect (inactive up to): cAMP production in absence of PGE2, vs 1 μM PGE2 control; for Kb: cAMP, CHO-hEP4, 30 nM PGE2, modified Cheng Prusoff; for IC50: inhibition of cAMP response to 30 nM PGE2, read-out: Antagonist effect: IC50. How it is done: Determination of cAMP in CHO Cells Transfected with Human EP4 Receptor (Functional Test)
Method: Evaluation of the agonist and antagonist activity of Compound 1 in the human EP4 receptor expressed in CHO cells transfected with the human EP4 receptor, determined by measuring its effects on cAMP production in the absence and in the presence of the endogenous agonist PGE2.
The CHO cells were suspended in HBSS buffer (Invitrogen) with the addition of HEPES 20 mM (pH 7.4) and IBMX […], then distributed in microplates at a density of 20000 cells per well and incubated for 10 minutes at room temperature in the absence (control) or in presence of the compound under examination. As a reference control of the agonist activity, 1 μM of PGE2 was added to independent dosage wells. In the case of the evaluation of the antagonistic effect, the reference agonist PGE2 was instead added to a final concentration of 30 nM. After 10 minutes of incubation at room temperature, the cells were lysed and the fluorescence acceptor (cAMP labelled D2) and the fluorescence donor (anti-cAMP antibody labelled with europium cryptate) were added. After 60 minutes at room temperature, the fluorescence transfer was measured at a wavelength of 337 nm in excitation and at 620 and 665 nm in emission using a microplate reader (Envison, Perkin Elmer). The cAMP concentration was determined by dividing the measured signal at 665 nm by that measured at 620 nm (ratio). The results were expressed, in the case of the evaluation of the agonist effect, as a percentage of the control response at 1 μM of PGE2 while, in the case of the evaluation of the antagonist effect, as a percentage of inhibition of the response of the control agonist at 30 nM PGE2. For the determination of the antagonist activity, the apparent dissociation constant (Kb) was calculated by applying the modified Cheng Prusoff equation (Kb=IC50/(1+A/EC50A)); where A=concentration of the reference agonist PGE2, and EC50A=EC50 value of the reference agonist.

Data set [3] is described as follows: Pharmacokinetics in Wistar rats. It is filed as in vivo. Particulars: for Cmax: rat, plasma, oral.
Data set [4] concerns collagen-induced arthritis in mice. In words: Collagen arthritis in the mouse (CIA). It is filed as in vivo.
Setting [5] is: read-out: Antagonist effect: Kb.
Setting [6] is: read-out: Kb (apparent dissociation constant), antagonist.

T1 sequence (P43114 whole entry): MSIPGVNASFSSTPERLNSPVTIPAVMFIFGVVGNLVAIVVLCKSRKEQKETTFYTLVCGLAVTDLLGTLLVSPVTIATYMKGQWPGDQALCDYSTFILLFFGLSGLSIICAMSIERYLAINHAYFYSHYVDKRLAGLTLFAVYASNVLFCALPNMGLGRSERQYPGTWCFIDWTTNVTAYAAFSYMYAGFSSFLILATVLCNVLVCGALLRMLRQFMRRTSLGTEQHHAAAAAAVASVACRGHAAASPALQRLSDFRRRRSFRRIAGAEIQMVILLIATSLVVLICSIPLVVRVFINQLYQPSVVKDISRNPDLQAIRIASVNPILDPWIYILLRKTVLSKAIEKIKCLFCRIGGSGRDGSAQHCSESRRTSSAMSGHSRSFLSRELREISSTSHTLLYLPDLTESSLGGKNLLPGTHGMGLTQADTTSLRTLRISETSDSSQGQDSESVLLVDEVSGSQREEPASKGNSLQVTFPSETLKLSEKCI
T2 sequence (P35408 whole entry): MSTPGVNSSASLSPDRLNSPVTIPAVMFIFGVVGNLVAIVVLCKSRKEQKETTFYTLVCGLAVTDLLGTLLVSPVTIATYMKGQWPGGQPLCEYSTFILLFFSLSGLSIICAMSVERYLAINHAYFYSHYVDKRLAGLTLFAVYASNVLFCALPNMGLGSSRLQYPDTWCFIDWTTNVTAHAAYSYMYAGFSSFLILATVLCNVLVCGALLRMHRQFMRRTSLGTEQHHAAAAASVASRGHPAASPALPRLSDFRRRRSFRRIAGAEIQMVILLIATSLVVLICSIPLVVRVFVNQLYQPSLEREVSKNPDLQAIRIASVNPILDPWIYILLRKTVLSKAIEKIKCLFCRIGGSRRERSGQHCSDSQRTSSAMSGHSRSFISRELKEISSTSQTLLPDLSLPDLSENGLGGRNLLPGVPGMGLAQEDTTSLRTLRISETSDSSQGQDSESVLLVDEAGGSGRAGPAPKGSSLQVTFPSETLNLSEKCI

For the molecule `O=C(O)c1ccc(C2(NC(=O)[C@H]3CC4(CCN3Cc3ccc(C(F)(F)F)cc3)CC4)CC2)cc1` [CR6086, 4-(1-(6-(4-(trifluoromethyl)benzyl)-6-azaspiro [2.5]octan-5-carboxamide)cyclopropyl) benzoic acid, reference compound], on EP4 receptor, the “Effect per se on the release of TNF alpha (in absence of PGE2)” value is given as “no significant effects per se” and the “Reversion of the effect of PGE2 on LPS-induced TNF alpha release” value is given as “statistically significant reversion of the effect of PGE2”. For the same molecule, on human EP4 receptor [1], the IC50 came out at 48 ± 3 nM. For the same molecule, on human EP4 receptor [2], the “Agonist effect (inactive up to)” value was > 10^−6 M and the IC50 stood at 0.082 µM. Moreover, the Kb at human EP4 receptor [2] (setting [5]) turned out to be 0.0078 µM. Moreover, at human EP4 receptor [2] (setting [6]), the Kb worked out at 0.0078 µM.
Regarding `O=C(O)c1ccc(C2(NC(=O)[C@H]3CCCN3Cc3ccc(C(F)(F)F)cc3)CC2)cc1` [Compound 1], the Oral bioavailability result in data set [3] is given as “excellent oral bioavailability”. Moreover, the “AUC (0-24 h)” value in data set [3] (5 mg/kg) is listed as 5460 ngxh/ml. Moreover, the Cmax was about 9 µM in data set [3] (5 mg/kg, converted from 4270 ng/ml, read-out: CMAX as plasma concentration) and 4.27 µg/mL in data set [3] (5 mg/kg, read-out: CMAX). For the same molecule, the “Progression of collagen-induced arthritis (oedema, clinical and histopathological score)” value in data set [4] (45 and 90 mg/kg oral, 16 days, DBA/1 mice) is “significantly and in a dose-dependent manner reduced the evolution of the pathology”. In data set [4] (compound 1 at 45 mg/kg vs CR6086 30 mg/kg in a similar study), the “Reversion of clinical symptoms (swelling of paws) compared with CR6086 30 mg/kg” value is reported as “greater effect on the reversion of clinical symptoms”. Moreover, the “Effect per se on the release of TNF alpha (in absence of PGE2)” value on EP4 receptor was “no significant effects per se”. Besides, the “Reversion of the effect of PGE2 on LPS-induced TNF alpha release” value on EP4 receptor was “statistically significant reversion of the effect of PGE2”. In addition, the IC50 at human EP4 receptor [1] turned out to be 45 ± 0.4 nM; at human EP4 receptor [2], 0.16 µM. On human EP4 receptor [2], the “Agonist effect (inactive up to)” value is given as > 10^−6 M. In addition, the Kb on human EP4 receptor [2] (setting [5]) and at human EP4 receptor [2] (setting [6]) was 0.015 µM in each case.
As to `O=C(O)c1ccc(C2(NC(=O)[C@@H]3CCCN3Cc3ccc(C(F)(F)F)cc3)CC2)cc1` [Compound 2, sodium salt of (S)-4-(1-(1-(4-(trifluoromethyl)benzyl)pyrrolidin-2-carboxamide)cyclopropyl) benzoic acid], at human EP4 receptor [1], the IC50 was determined as 2210 ± 940 nM. The “times less active than Compound 1 in inhibiting the binding of the PGE2 ligand to the human EP4 receptor” value on human EP4 receptor [1] (relative to Compound 1) is listed as “about 50 times”.

Usually IC50 stands for the midpoint of a concentration-inhibition curve. Usually Kb stands for the affinity of an antagonist, worked out from how it opposes an agonist.
